Test results published in US20200179341A1, “METHODS AND COMPOSITIONS FOR TREATING MULTIPLE MYELOMA AND INCREASING ANTIBODY DEPENDENT CELL CYTOTOXICITY BY TARGETING THE ARYL HYDROCARBON RECEPTOR” (priority 2016, published 2020).

What was measured:
[1] = test system: NK cell precursors; details: Roeven Blood 2014; cited from earlier work
[2] = test system: NK cell precursors; assay: NK cell development and function from AHR-expressing innate lymphoid cell precursors; type: cell-based; details: compared to control and AHR agonist (FICZ) treated cells; FIG. 2
[3] = test system: MM cells; assay: Surface expression (MFI) of MM antigens targetable by therapeutic monoclonal antibodies after AHR inhibition; type: cell-based
Experimental: AHR antagonism enhances MM expression of antigens targetable by therapeutic monoclonal antibodies. […] Accordingly, NK-cell mediated killing of MM tumor cells is tested by combining AHR antagonism of effector cells and MM targets with therapeutic monoclonal antibodies.

[4] = test system: MM tumor cell burden; assay: CH233191 by oral gavage in a disseminated murine MM model
[5] = test system: MM cell targets; assay: Antibody-mediated ADCC with AHR antagonism (cytotoxicity co-culture); type: cell-based
Experimental: A series of in vitro studies are conducted in which immune effector cells and/or MM cell targets are pre-treated with vehicle or CH233191 prior to cytotoxicity co-culture assay. Accounting for the baseline, direct effect of AHR antagonism on MM cell viability, any additive rate of target cell death in the combinatorial condition can be studied, in particular when both effectors and targets are pre-exposed to CH233191. Using validated techniques (Benson Blood 2010), the effects of CH233191 on immune effector cell expansion, expression of activating receptors, and abilities to traffic to, acquire, and lyse MM targets is studied. These experiments are conducted in the presence of therapeutic monoclonal antibodies in order to assess whether AHR antagonism may enhance ADCC-mediated immunotherapy (e.g., Elotuzumab, Daratumumab/Isatuximab/Rituximab/Milatuzumab).

Structure (SMILES)	acquisition of NK cell function (corroboration) [1]	acquisition of cytokine production and cytotoxicity capabilities [2]	MFI (CH233191), CD20 ([3]; surface antigen CD20, antibody Rituximab, DMSO control MFI 321)	MFI (CH233191), CD38 ([3]; surface antigen CD38, antibodies Daratumumab, Isatuximab, DMSO control MFI 2959)	MFI (CH233191), CD74 ([3]; surface antigen CD74, antibody Milatuzumab, DMSO control MFI 761)	MFI (CH233191), SLAMF7 (CS1) ([3]; surface antigen SLAMF7 (CS1), antibody Elotuzumab, DMSO control MFI 1946)	oral bioavailability ([4]; difficulties with solubilization in corn oil for gavage)	apparent reduction in MM tumor cell burden ([4]; oral gavage in corn oil, versus vehicle-treated controls)	survival outcome ([4]; oral gavage, disseminated murine MM model)	Elotuzumab-mediated ADCC ([5]; FIG. 9, with Elotuzumab)	Daratumumab-mediated ADCC ([5]; FIG. 10, with Daratumumab)
CC(C)n1cnc2c(NCCc3ccc(O)cc3)nc(-c3csc4ccccc34)nc21 [Stemreginin 1]	corroborated this finding	–	–	–	–	–	–	–	–	–	–
Cc1ccccc1N=Nc1ccc(NC(=O)c2ccnn2C)c(C)c1 [CH233191]	–	rapid acquisition of cytokine production as well as cytotoxicity capabilities	753	6110	1367	2999	questionable	2 of 5	all mice died of progressive MM	appears to enhance	appears to enhance
